These results are taken from PMC7377239, “Cardiovascular Effects of Polychlorinated Biphenyls and Their Major Metabolites” (Environmental Health Perspectives, 2020).

For assay [1], the system named is iCell endothelial cells (human iPSC-derived ECs). The assay can be described thus: Tube formation (tubulogenesis) assay in iCell endothelial cells, 18 h. It is filed as cell-based. The following applies: Homo sapiens, Endothelial cell; for activity at 0.1 µM: 0.10 µM. In outline: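 iCell ECs (passages 1–5) seeded 7,500 cells/well on reduced-growth-factor Geltrex in starvation medium, exposed overnight at 37°C to compounds in triplicate concentration–response (0.5% DMSO vehicle). Calcein AM staining, 4× imaging, angiogenesis image analysis; readouts normalized to vehicle, four-parameter logistic fit, POD at 1 SD of vehicle; 100 μM assigned NOAEL if no response.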

The subject of the next assay is HUVECs. The assay can be described thus: Tube formation (tubulogenesis) assay in HUVECs, 18 h. Type of assay: cell-based, human. Conditions: Homo sapiens, HUVEC, 18 h; for activity at 0.01 µM: concentration 0.01 µM; for activity at 0.1 µM: concentration 0.10 µM; for activity at 1 µM: concentration 1.00 µM; for activity at 10 µM: concentration 10.00 µM; for activity at 100 µM: concentration 100.00 µM. In outline:
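HUVECs (passage 1–5) seeded on reduced-growth-factor basement membrane and exposed to compounds overnight at 37°C, 5% CO2, in 2× maintenance medium with 12.5 ng/mL VEGF; 0.5% DMSO vehicle. Calcein AM-stained tube networks imaged and analysed; vehicle-normalized readouts fit to four-parameter logistic, POD set at one SD of vehicle means.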

Where [2] appears, read: iPSC-EC, 0.00 µM = 100.00, read-out: endo.mtl.18hr.
Where [3] appears, read: iPSC-EC, 0.00 µM = 100.00, read-out: endo.tlps.18hr.
[4] abbreviates: iPSC-EC, 0.00 µM = 100.00, read-out: endo.tta.18hr.
[5] abbreviates: iPSC-EC, 0.00 µM = 100.00, read-out: endo.ttl.18hr.
The mark [6] stands for this setting: HUVECs tube formation, 0.00 µM = 100.00, read-out: huvec.mtl.18hr.
[7] abbreviates: HUVECs tube formation, 0.00 µM = 100.00, read-out: huvec.tlps.18hr.
Setting [8] is: HUVECs tube formation, 0.00 µM = 100.00, read-out: huvec.tta.18hr.
The mark [9] stands for this setting: HUVECs tube formation, 0.00 µM = 100.00, read-out: huvec.ttl.18hr.
Where [10] appears, read: endothelial cells (endo), tube formation mtl, 18 hr, read-out: POD endo.mtl.18hr.
The mark [11] stands for this setting: endothelial cells (endo), tube formation tlps, 18 hr, read-out: POD endo.tlps.18hr.
Where [12] appears, read: endothelial cells (endo), tube formation tta, 18 hr, read-out: POD endo.tta.18hr.
[13] abbreviates: endothelial cells (endo), tube formation ttl, 18 hr, read-out: POD endo.ttl.18hr.
Where [14] appears, read: tube formation mtl, read-out: POD huvec.mtl.18hr.
Setting [15] is: tube formation tlps, read-out: POD huvec.tlps.18hr.
Where [16] appears, read: tube formation tta, read-out: POD huvec.tta.18hr.
The mark [17] stands for this setting: tube formation ttl, read-out: POD huvec.ttl.18hr.

Counter-ions that a name gives are not always drawn. Like-named read-outs stand apart in the source and are kept apart here.

Take `COc1cc(Cl)c(-c2cc(Cl)ccc2Cl)cc1Cl` [4-OMe PCB52]: the activity at 0.01 µM in assay [1] (setting [2]) was 120%; in assay [1] (setting [3]), 104%; in assay [1] (setting [4]) it was 141%; in assay [1] (setting [5]), 150%; in the assay with HUVECs (setting [6]) it was 105%; with HUVECs (setting [7]), 93.8%. For the same molecule, the activity at 0.01 µM in the assay on HUVECs (setting [8]) stood at 98.5%; in the assay on HUVECs (setting [9]), 87.4%. The activity at 0.1 µM in assay [1] (setting [2]) was found to be 112%; in assay [1] (setting [3]), 113%; in assay [1] (setting [4]) it was 116%; in assay [1] (setting [5]), 123%; with HUVECs (setting [6]), 95.6%; in the assay on HUVECs (setting [7]) it was 86.8%. Also, the activity at 0.1 µM was determined as 80.4% in the assay with HUVECs (setting [8]) and 70.5% in the assay on HUVECs (setting [9]). The activity at 1 µM was found to be 119% in assay [1] (setting [2]); 114% in assay [1] (setting [3]); 121% in assay [1] (setting [4]); 132% in assay [1] (setting [5]); 109% in the assay with HUVECs (setting [6]); 140% in the assay on HUVECs (setting [7]). In addition, the activity at 1 µM in the assay on HUVECs (setting [8]) was determined as 102%; with HUVECs (setting [9]) it was 93.9%. Besides, the activity at 10 µM in assay [1] (setting [2]) was determined as 114%; in assay [1] (setting [3]), 131%; in assay [1] (setting [4]) it was 136%; in assay [1] (setting [5]) it was 142%; in the assay on HUVECs (setting [6]) it was 94.7%; in the assay with HUVECs (setting [7]), 81.4%. The results for the activity at 10 µM with HUVECs (setting [8]) and with HUVECs (setting [9]) were 92.9% and 84.8%, respectively. Moreover, the activity at 100 µM in assay [1] (setting [2]) stood at 49.4%; in assay [1] (setting [3]) it was 15.9%; in assay [1] (setting [4]) it was 6.4%; in assay [1] (setting [5]), 8.34%; in the assay on HUVECs (setting [6]), 59.2%; in the assay on HUVECs (setting [7]) it was 42.6%. Further, the activity at 100 µM is 75.1% with HUVECs (setting [8]) and 67.4% in the assay with HUVECs (setting [9]). Further, the minimal effective concentration in assay [1] (iPSC-EC, 100.00 = highest concentration tested, read-out: endo.mtl.18hr POD) was found to be 52 µM; in assay [1] (iPSC-EC, 100.00 = highest concentration tested, read-out: endo.tlps.18hr POD), 56 µM; in assay [1] (iPSC-EC, 100.00 = highest concentration tested, read-out: endo.tta.18hr POD) it was 51.6 µM; in assay [1] (iPSC-EC, 100.00 = highest concentration tested, read-out: endo.ttl.18hr POD), 54.7 µM; in the assay on HUVECs (HUVECs tube formation, MAX 100.00, read-out: huvec.mtl.18hr POD) it was 17.1 µM; in the assay on HUVECs (HUVECs tube formation, MAX 100.00, read-out: huvec.tlps.18hr POD), 14.2 µM. The minimal effective concentration in the assay with HUVECs (HUVECs tube formation, MAX 100.00, read-out: huvec.tta.18hr POD) was 100 µM; in the assay with HUVECs (HUVECs tube formation, MAX 100.00, read-out: huvec.ttl.18hr POD) it was 100 µM.
In the case of `COc1ccc(-c2cccc(Cl)c2)cc1Cl` [4-OMe-PCB 11, 4-methoxy-3,3′-dichlorobiphenyl], the minimal effective concentration was 100 µM in assay [1] (setting [10]); 28.4 µM in assay [1] (setting [11]); 0.00169 µM in assay [1] (setting [12]); 0.00197 µM in assay [1] (setting [13]); 9.33 µM with HUVECs (setting [14]); 25.8 µM with HUVECs (setting [15]). Besides, the minimal effective concentration with HUVECs (setting [16]) came out at 100 µM; in the assay on HUVECs (setting [17]), 1.22 µM.
On to `COc1cc(Cl)c(-c2cc(Cl)ccc2Cl)cc1Cl` [4-OMe-PCB 52, 4-methoxy-2,2′,5,5′-tetrachlorobiphenyl], for which the minimal effective concentration in assay [1] (setting [10]) turned out to be 52 µM; in assay [1] (setting [11]), 56 µM; in assay [1] (setting [12]), 51.6 µM; in assay [1] (setting [13]) it was 54.7 µM; in the assay with HUVECs (setting [14]), 17.1 µM; in the assay on HUVECs (setting [15]), 14.2 µM. Besides, the minimal effective concentration with HUVECs (setting [16]) and with HUVECs (setting [17]) was 100 µM in each case.
Take `O=S(=O)(O)Oc1ccc(-c2cccc(Cl)c2)cc1Cl` [4-PCB 11 sulfate]: the minimal effective concentration in assay [1] (setting [10]) was found to be 25.3 µM; in assay [1] (setting [11]), 12.7 µM; in assay [1] (setting [12]), 21 µM; in assay [1] (setting [13]) it was 25.6 µM; in the assay with HUVECs (setting [14]), 14.3 µM; in the assay with HUVECs (setting [15]), 27.2 µM. Moreover, the minimal effective concentration in the assay on HUVECs (setting [16]) and in the assay with HUVECs (setting [17]) was 100 µM each time.
In the case of `O=S(=O)(O)Oc1cc(Cl)c(-c2cc(Cl)ccc2Cl)cc1Cl` [4-PCB 52 sulfate], the minimal effective concentration in assay [1] (setting [10]) was 7.44 µM; in assay [1] (setting [11]), 5.74 µM; in assay [1] (setting [12]), 8.83 µM; in assay [1] (setting [13]), 9.64 µM; in the assay on HUVECs (setting [14]), 14.6 µM; with HUVECs (setting [15]), 10.1 µM. For the same molecule, the minimal effective concentration with HUVECs (setting [16]) and in the assay with HUVECs (setting [17]) was 100 µM each time.
